Values after ≈ are worked out from the molar mass of the structure shown. Where two headings read alike, the source gives them in different places.
Columns and labels:
[1] = system: WiDr cells; assay: WiDr CellTiter-Glo 3D cell proliferation assay; type: cell-based; settings: Homo sapiens; WiDr cells, 3D proliferation; read-out: 3D WiDr pGI50 (converted)
[2] = system: HCT-116 cells; assay: HCT-116 CellTiter-Glo 3D cell proliferation assay; type: cell-based; settings: Homo sapiens, HCT-116; HCT116 cells, 3D proliferation; read-out: 3D HCT116 pGI50 (converted)
Procedure: HCT-116 CellTiter-Glo 3D Cell Proliferation Assay
The human HCT-116 colorectal carcinoma cell line (ATCC CCL-247) endogenously expresses the KRAS^G13D mutation, which leads to enhanced survival and proliferative signaling. […] On the first day, HCT-116 cells were harvested, resuspended in growth medium (McCoys5A with Glutamax (Life Technologies 36600021) with 10% heat-inactivated fetal bovine serum (Sigma F9665)), and counted. Cells were plated in 100 μl per well in each well of a Corning 7007 96-well clear round bottom Ultra-Low Attachment plate (VWR 444-1020) to a final density of 1000 cells per well. Cells were seeded for pre- and post-treatment readouts. The cells were then incubated at 37° C. and 5% CO2 for 3 days (72 hours) to allow spheroid formation. After 72 hours, the plate seeded for a pre-treatment read was removed from the incubator to allow equilibration to room temperature for 30 minutes, before CellTitre-Glo® reagent was added to each well. The plates were incubated at room temperature for 5 minutes shaking at 300 rpm, followed by an incubation of 25 minutes on the benchtop before being read on the Envision reader (Perkin Elmer) as described below. On the same day, the cells plated for the post-treatment readout were dosed with compounds to produce a 9-point dose response, where the top concentration was 15 μM and following concentrations were at 1/2 log dilution intervals. These cells were subsequently incubated at 37° C. and 5% CO2 for another 4 days (96 hours). After 4 days, the plate was removed from the incubator to allow equilibration to room temperature for 30 minutes and treated with CellTitre Glo® reagent as stated above. […] The CellTitre Glo® reagent lyses the cells and contains luciferin and a luciferase (Ultra-Glo™ Recombinant Luciferase), which in the presence of ATP and oxygen can produce bioluminescence from luciferin. Therefore, plates were read on an EnVision reader (Perkin Elmer) and luminescence signals were recorded. Cell proliferation was determined on 4 days after dosing relative to the pre-treatment read. All data were analyzed using the Dotmatics or GraphPad Prism software packages. Inhibition of proliferation was assessed by determination of the GI50 value, which was defined as the concentration of compound required to decrease the level of cell proliferation by 50% when compared to DMSO control.

[3] = Plasma protein binding assay, mouse plasma (mPPB); type: in vitro ADME; settings: 5 μM
Summary of the method: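 Equilibrium dialysis of 5 μM compound in previously frozen human or mouse plasma against phosphate buffer, 4 h at 37 °C. Both chambers quantified by LC-MS/MS; % free = (1−((PC−PF)/PC))×100.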

[4] = Microsomal stability assay, human liver microsomes (HLM); type: in vitro ADME; settings: 0.5 mg/mL protein, 1 μM substrate
Summary of the method: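 Substrate depletion: 1 μM compound incubated at 37° C. with cryopreserved mouse or human liver microsomes at 0.5 mg·mL^−1 protein. Timed aliquots quenched in ice-cold organic solvent and measured by LC-MS/MS; t1/2 and CLint derived from the slope of ln % remaining versus time.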

[5] = FeSSIF solubility assay; type: physicochemical; settings: pH 5 acetate buffer, 37° C.; for solubility thermodynamic at 24 h: fed state simulated intestinal fluid (FeSSIF), thermodynamic from solid
Summary of the method: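 FeSSIF (pH 5 acetate buffer, 1 mL) was added to 1.0 mg solid compound and shaken at 650 rpm and 37 °C for 24 h. After filtration, dissolved compound was quantified by LC-UV against a 250 μM calibration standard.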

[6] = equilibrium dialysis 4 hours at 37° C.

Compound	GI50 [1] [nM]	GI50 [2] [nM]	mPPB (% free) [3, 6] [% free]	microsomal CLint at 1 μM ([4]; 37° C.) [µL/min/mg]	solubility thermodynamic at 24 h ([5]; read-out: FESSIF Sol) [µg/mL]	mPPB (% free) ([3]; equilibrium dialysis 4 hours 37° C.)	solubility thermodynamic at 24 h ([5]; read-out: Sol (FESSIF)) [µg/mL]	FESSIF Sol ([5]; 24 h) [mg/L]	microsomal CLint at 1 μM [4] [µL/min/mg]	HLM (CLint) ([4]; 37° C.) [µL/min/mg]
O=C(CN1CC[C@@H](O)C1)Nc1cc(Oc2ccc3c(c2)CC(c2nc(-c4ccccc4)c[nH]2)CO3)ccn1 (stereo partly shown) [Compound 145]	6310	479	0.53	57.2	–	–	–	–	–	–
COc1csc(-c2c[nH]c(C3COc4ccc(Oc5ccnc6c5CCC(=O)N6)cc4C3)n2)c1 (stereo not shown) [Compound 122, 5-[3-[5-(4-methoxy-2-thienyl)-1H-imidazol-2-yl]chroman-6-yl]oxy-3,4-dihydro-1H-1,8-naphthyridin-2-one]	513	182	0.21	80.3	124 (≈ 260 µM)	–	–	–	–	–
O=C(CN1CC(O)C1)Nc1cc(Oc2ccc3c(c2)CC(c2nc(-c4ccccc4)c[nH]2)CO3)ccn1 (stereo not shown) [Compound 153]	5620	427	0.6	19.2	336 (≈ 675 µM)	–	–	–	–	–
CCc1cc(-c2c[nH]c(C3COc4ccc(Oc5ccnc6c5CCC(=O)N6)cc4C3)n2)ccn1 (stereo not shown) [Compound 118, 5-[3-[4-(2-ethyl-4-pyridyl)-1H-imidazol-2-yl]chroman-6-yl]oxy-3,4-dihydro-1H-1,8-naphthyridin-2-one]	1170	398	1.0	81.2	–	–	–	–	–	–
O=C1CCc2c(Oc3ccc4c(c3)CC(c3nc(-c5ccnc(C(F)(F)F)c5)c[nH]3)CO4)ccnc2N1 (stereo not shown) [Compound 8, 5-[3-[4-[2-(trifluoromethyl)-4-pyridyl]-1H-imidazol-2-yl]chroman-6-yl]oxy-3,4-dihydro-1H-1,8-naphthyridin-2-one]	191	138	1.1	–	–	1.1	18.5 (≈ 36.5 µM)	18.5	36	–
CCc1cc(-c2c[nH]c(C3COc4ccc(Oc5ccnc6c5CCC(=O)N6)cc4C3)n2)n(C)n1 (stereo not shown) [Compound 111]	1020	316	1.73	48.1	70 (≈ 149 µM)	–	–	–	–	–
O=C1CCc2c(Oc3ccc4c(c3)CC(c3nc(-c5ccnc(C(F)F)c5)c[nH]3)CO4)ccnc2N1 (stereo not shown) [Compound 101, 5-[3-[4-[2-(difluoromethyl)-4-pyridyl]-1H-imidazol-2-yl]chroman-6-yl]oxy-3,4-dihydro-1H-1,8-naphthyridin-2-one]	309	85.1	1.1	29.6	5.7 (≈ 11.6 µM)	–	–	–	–	–
CN1CCC(C(=O)Nc2cc(Oc3ccc4c(c3)CC(c3nc(-c5ccccc5)c[nH]3)CO4)ccn2)CC1 (stereo not shown) [Compound 147, 1-methyl-N-[4-[3-(4-phenyl-1H-imidazol-2-yl)chroman-6-yl]oxy-2-pyridyl]piperidine-4-carboxamide]	1380	1380	0.8	10.4	528 (≈ 1040 µM)	–	–	–	–	–
COc1cc(-c2c[nH]c(C3COc4ccc(Oc5ccnc6c5CCC(=O)N6)cc4C3)n2)ccn1 (stereo not shown) [Compound 104]	1150	447	1.5	–	–	–	–	–	–	27.8
CCn1nc(C)cc1-c1c[nH]c(C2COc3ccc(Oc4ccnc5c4CCC(=O)N5)cc3C2)n1 (stereo not shown) [Compound 124, 5-[3-[4-(2-ethyl-5-methyl-pyrazol-3-yl)-1H-imidazol-2-yl]chroman-6-yl]oxy-3,4-dihydro-1H-1,8-naphthyridin-2-one]	1450	724	3.9	65.8	3 (≈ 6.38 µM)	–	–	–	–	–
O=C(Nc1cc(Oc2ccc3c(c2)CC(c2nc(-c4ccc(F)cc4)c[nH]2)CO3)ccn1)C1CC1 (stereo not shown) [Compound 155, N-[4-[3-[4-(4-fluorophenyl)-1H-imidazol-2-yl]chroman-6-yl]oxy-2-pyridyl]cyclopropanecarboxamide]	631	100	0.1	28.9	124 (≈ 263 µM)	–	–	–	–	–
O=C(Nc1cc(Oc2ccc3c(c2)CC(c2nc(-c4ccccc4)c[nH]2)CO3)ccn1)C1CC1(F)F (stereo not shown) [Compound 137, 2,2-difluoro-N-[4-[3-(4-phenyl-1H-imidazol-2-yl)chroman-6-yl]oxy-2-pyridyl]cyclopropanecarboxamide]	126	70.8	<0.1	32.6	73.9 (≈ 151 µM)	–	–	–	–	–
Cc1ccc(-c2c[nH]c(C3COc4ccc(Oc5ccnc6c5CCC(=O)N6)cc4C3)n2)s1 (stereo not shown) [Compound 110]	200	70.8	0.1	48.3	8.5 (≈ 18.5 µM)	–	–	–	–	–
CC(=O)Nc1cc(Oc2ccc3c(c2)CC(c2nc(-c4ccccc4)c[nH]2)CO3)ccn1 (stereo not shown) [Compound 156, N-[4-[3-(4-phenyl-1H-imidazol-2-yl)chroman-6-yl]oxy-2-pyridyl]acetamide]	269	89.1	0.4	30.3	296 (≈ 695 µM)	–	–	–	–	–
Cn1nc(C2CC2)cc1-c1c[nH]c(C2COc3ccc(Oc4ccnc5c4CCC(=O)N5)cc3C2)n1 (stereo not shown) [Compound 125, 5-[3-[4-(5-cyclopropyl-2-methyl-pyrazol-3-yl)-1H-imidazol-2-yl]chroman-6-yl]oxy-3,4-dihydro-1H-1,8-naphthyridin-2-one]	15100	1120	–	–	22 (≈ 45.6 µM)	–	–	–	–	–
c1ccc(-c2c[nH]c(C3COc4ccc(Oc5ccnc(Nc6ccccn6)c5)cc4C3)n2)cc1 (stereo not shown) [Compound 140, 4-[3-(4-phenyl-1H-imidazol-2-yl)chroman-6-yl]oxy-N-(2-pyridyl)pyridin-2-amine]	1910	1320	0.2	48.7	–	–	–	–	–	–
Cn1nc(C(F)(F)F)cc1-c1c[nH]c(C2COc3ccc(Oc4ccnc5c4CCC(=O)N5)cc3C2)n1 (stereo not shown) [Compound 107, 5-[3-[4-[2-methyl-5-(trifluoromethyl)pyrazol-3-yl]-1H-imidazol-2-yl]chroman-6-yl]oxy-3,4-dihydro-1H-1,8-naphthyridin-2-one]	776	229	0.3	30.3	–	–	–	–	–	–
Cn1ncc2ccc(-c3c[nH]c(C4COc5ccc(Oc6ccnc7c6CCC(=O)N7)cc5C4)n3)cc21 (stereo not shown) [Compound 130, 5-[3-[4-(1-methylindazol-6-yl)-1H-imidazol-2-yl]chroman-6-yl]oxy-3,4-dihydro-1H-1,8-naphthyridin-2-one]	1660	617	0.2	23.6	–	–	–	–	–	–
O=C1CCc2c(Oc3ccc4c(c3)CC(c3nc5ccncc5[nH]3)CO4)ccnc2N1 (stereo not shown) [Compound 134, 5-[3-(3H-imidazo[4,5-c]pyridin-2-yl)chroman-6-yl]oxy-3,4-dihydro-1H-1,8-naphthyridin-2-one]	25700	15100	9.5	13.6	–	–	–	–	–	–

Reference: patent US12304912B2, “Fused bicyclic RAF inhibitors and methods for use thereof” (Jazz Pharmaceuticals Ireland Limited, priority 2020, dated 2025)
